In assay [1] the target is T1, human SXR ligand binding domain (Homo sapiens, UniProt O75469).
T1 sequence (O75469 107-434 limits assumed): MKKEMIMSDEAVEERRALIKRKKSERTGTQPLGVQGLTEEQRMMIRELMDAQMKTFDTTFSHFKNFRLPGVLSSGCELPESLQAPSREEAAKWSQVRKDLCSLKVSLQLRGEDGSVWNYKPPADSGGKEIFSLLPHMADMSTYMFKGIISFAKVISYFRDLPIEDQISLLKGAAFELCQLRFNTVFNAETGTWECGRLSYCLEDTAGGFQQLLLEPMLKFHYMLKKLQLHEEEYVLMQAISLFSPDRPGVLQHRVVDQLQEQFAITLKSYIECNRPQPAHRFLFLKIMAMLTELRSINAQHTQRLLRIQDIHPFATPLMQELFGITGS
In words: Gal-L-SXR (Gal-SXR) Gal4 reporter transient transfection assay in CV-1 cells. The source says:
Use of a standard model heterologous cell system to reconstitute SXR agonist and antagonist responsiveness allows SXR activity to be monitored in the absence of the metabolic events which may obscure the process being tested. Any suitable heterologous cell system may be used to test the activation of potential or known SXR nuclear receptor ligands, as long as the cells are capable of being transiently transfected with the appropriate DNA which expresses receptors, reporter genes, response elements, and the like. Cells which constitutively express one or more of the necessary genes may be used as well. Cell systems that are suitable for the transient expression of mammalian genes and which are amenable to maintenance in culture are well known to those skilled in the art. […] Suitable reporter gene constructs are well known to skilled workers in the fields of biochemistry and molecular biology. Activity of the reporter gene can be conveniently normalized to the internal control and the data plotted as fold activation relative to untreated cells.
The Gal4 reporter activity was normalized to the internal β-galactosidase control and the data plotted as fold activation relative to untreated cells. All transfections contained the Gal4 reporter and a β-galactosidase expression vector as an internal control.
Izbicka et al., Ann. Oncol.
Gal-PXR containing the ligand binding domain of mouse PXR (#AF031814) was obtained from Bruce Blumberg.
Transient Transffection Assays—CV-1 cells were grown and transfected as described.

A further assay concerns the target T2, human VDR (Homo sapiens, UniProt P11473).
T2 construct: expressed in transfected cells; host or cells: CV-1
Put plainly: Nuclear receptor specificity transfection assay. The following applies: 10 μM paclitaxel. Format: cell-based.

For another assay, the target named is T3, human RARα (Homo sapiens, UniProt P10276).
T3 construct: expressed in transfected cells; host or cells: CV-1
T3 sequence (P10276 whole entry): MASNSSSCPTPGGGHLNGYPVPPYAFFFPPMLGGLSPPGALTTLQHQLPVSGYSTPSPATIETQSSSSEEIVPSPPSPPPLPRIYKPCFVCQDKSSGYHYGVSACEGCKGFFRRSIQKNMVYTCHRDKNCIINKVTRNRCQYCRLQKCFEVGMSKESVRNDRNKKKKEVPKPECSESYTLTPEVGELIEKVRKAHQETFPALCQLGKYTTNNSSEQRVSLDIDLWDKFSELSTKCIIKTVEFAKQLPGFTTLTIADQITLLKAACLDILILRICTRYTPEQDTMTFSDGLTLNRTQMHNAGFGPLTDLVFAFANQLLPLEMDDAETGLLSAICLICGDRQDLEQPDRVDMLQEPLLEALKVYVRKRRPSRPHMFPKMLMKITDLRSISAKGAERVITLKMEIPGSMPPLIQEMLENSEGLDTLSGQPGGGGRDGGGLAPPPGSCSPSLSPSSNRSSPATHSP
In words: Nuclear receptor specificity transfection assay. Conditions: 10 μM paclitaxel. Format: cell-based.

Another assay concerns the target T4, mouse CARβ (Mus musculus, UniProt O35627).
T4 sequence (O35627 1-358): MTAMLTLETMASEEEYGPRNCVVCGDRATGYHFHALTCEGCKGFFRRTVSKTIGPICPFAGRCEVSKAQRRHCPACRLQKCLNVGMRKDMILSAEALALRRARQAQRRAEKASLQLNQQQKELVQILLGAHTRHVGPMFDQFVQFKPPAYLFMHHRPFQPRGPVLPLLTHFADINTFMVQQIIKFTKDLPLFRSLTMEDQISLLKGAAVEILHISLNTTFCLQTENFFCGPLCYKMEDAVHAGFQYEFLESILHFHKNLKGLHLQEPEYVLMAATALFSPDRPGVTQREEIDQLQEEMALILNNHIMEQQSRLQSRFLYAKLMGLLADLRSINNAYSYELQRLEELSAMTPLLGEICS
In words: Nuclear receptor specificity transfection assay / LXRE×3-TK-luc reporter with CARβ in CV-1 cells. The following applies: 10 μM paclitaxel. Format: cell-based.

For a further assay, the target named is T5, FXR (Homo sapiens, UniProt Q96RI1).
T5 construct: expressed in transfected cells; host or cells: CV-1
T5 sequence (Q96RI1 whole entry, species assumed): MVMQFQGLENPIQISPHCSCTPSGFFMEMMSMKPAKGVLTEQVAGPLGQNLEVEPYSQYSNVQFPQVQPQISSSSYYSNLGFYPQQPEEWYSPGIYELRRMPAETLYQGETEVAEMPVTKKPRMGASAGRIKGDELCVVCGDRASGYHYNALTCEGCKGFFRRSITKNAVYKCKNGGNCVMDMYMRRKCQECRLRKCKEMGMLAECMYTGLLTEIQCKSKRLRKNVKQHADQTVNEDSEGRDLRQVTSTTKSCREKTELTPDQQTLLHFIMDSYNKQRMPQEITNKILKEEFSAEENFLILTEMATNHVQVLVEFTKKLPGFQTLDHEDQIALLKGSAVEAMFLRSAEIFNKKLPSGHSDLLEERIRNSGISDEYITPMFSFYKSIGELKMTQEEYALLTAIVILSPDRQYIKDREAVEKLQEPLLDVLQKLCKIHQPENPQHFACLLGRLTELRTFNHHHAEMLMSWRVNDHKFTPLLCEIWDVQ
Put plainly: Nuclear receptor specificity transfection assay. Format: cell-based. The following applies: 10 μM paclitaxel.

In assay [2] the test system is MDR1 protein (P-glycoprotein). Put plainly: Western analysis with P-glycoprotein antibody of LS180 cells. Format: cell-based, human. Conditions: 10 μM, 48 hours.
Description: Western Blotting was performed according to the following methods. Human LS180 cells in log phase growth were treated for 48 hours with the compounds indicated in the pertinent Figures. The cells were harvested, washed with phosphate buffered saline (PBS) and homogenized using 12-15 strokes of a Wheaton teflon-glass homogenizer. Cell debris was removed by centrifugation at 1500×g for 10 minutes, and the resulting supernatant was sedimented at 150,000×g for one hour at 4° C. to pellet the membranes. The membrane pellets were resuspended in PBS containing 1 mM phenylmethylsulfonyl fluoride and protein concentrations were determined according to standard prior art methods. […] The membranes were blocked with 5% non-fat dry milk in PBS with 0.1% Tween-20 (PBS-T) before incubation with a 1:500 dilution of P-glycoprotein antibody (Ab-1, Oncogene Research Products, Boston, Mass.) in blocking buffer for six hours at room temperature. Following several washes with PBS-T, membranes were incubated with a 1:1000 dilution of horseradish peroxidase-conjugated secondary anti-rabbit IgG antibodies. (Santa Cruz Biotechnology, Santa Cruz, Calif.) in blocking buffer for one hour at room temperature.
In a further assay the target is human ERα (Homo sapiens, UniProt P03372). The following applies: 10 μM paclitaxel.
Sequence of human ERα (P03372 whole entry): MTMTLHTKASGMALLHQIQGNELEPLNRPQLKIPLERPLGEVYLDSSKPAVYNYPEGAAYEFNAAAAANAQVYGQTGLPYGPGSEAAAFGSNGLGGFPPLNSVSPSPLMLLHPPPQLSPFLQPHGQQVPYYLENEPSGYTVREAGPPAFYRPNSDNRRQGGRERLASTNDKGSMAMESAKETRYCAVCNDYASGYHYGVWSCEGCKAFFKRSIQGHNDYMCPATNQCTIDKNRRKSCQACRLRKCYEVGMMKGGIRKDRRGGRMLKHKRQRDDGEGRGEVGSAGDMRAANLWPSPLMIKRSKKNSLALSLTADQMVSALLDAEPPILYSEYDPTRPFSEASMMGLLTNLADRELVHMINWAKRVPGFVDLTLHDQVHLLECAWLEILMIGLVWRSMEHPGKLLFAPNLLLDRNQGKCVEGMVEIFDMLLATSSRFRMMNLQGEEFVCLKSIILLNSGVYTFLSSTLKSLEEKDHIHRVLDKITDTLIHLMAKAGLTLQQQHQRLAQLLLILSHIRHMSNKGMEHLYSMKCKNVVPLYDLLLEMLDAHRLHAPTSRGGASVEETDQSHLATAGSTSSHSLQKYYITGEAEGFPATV

The values below come from patent publication US20020061836A1, “Methods for altering SXR activation using peptide mimetic HIV protease inhibitor SXR ligands” (priority 2000, published 2002).

The structures appear in SMILES notation.

T2 sequence (P11473 whole entry): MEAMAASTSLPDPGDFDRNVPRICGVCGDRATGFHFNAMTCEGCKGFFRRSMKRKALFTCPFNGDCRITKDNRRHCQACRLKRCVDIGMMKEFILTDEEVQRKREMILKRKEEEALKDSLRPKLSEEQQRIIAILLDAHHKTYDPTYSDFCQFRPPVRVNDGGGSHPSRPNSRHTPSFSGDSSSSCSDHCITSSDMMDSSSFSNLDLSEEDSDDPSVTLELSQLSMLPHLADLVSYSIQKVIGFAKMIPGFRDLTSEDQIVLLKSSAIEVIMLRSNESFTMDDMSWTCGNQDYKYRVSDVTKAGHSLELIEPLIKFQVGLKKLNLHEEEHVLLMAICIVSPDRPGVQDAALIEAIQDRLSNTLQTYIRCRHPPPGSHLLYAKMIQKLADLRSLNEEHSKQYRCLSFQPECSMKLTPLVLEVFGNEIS

Turning to `CC(=O)O[C@H]1C(=O)[C@@]2(C)[C@H]([C@H](OC(=O)c3ccccc3)[C@]3(O)C[C@H](OC(=O)[C@H](O)[C@@H](NC(=O)c4ccccc4)c4ccccc4)C(C)=C1C3(C)C)[C@]1(OC(C)=O)CO[C@@H]1C[C@@H]2O` [paclitaxel], the EC50 (commonly the concentration giving half of the maximal effect) in assay [1] was about 5 µM. In addition, the “effect on VDR reporter activity” value on human VDR is on record as “no effect”. Further, the “effect on RARα reporter activity” value at human RARα is listed as “no effect”. The “effect on CARβ reporter activity” value on mouse CARβ is “no effect”. For the same molecule, the “effect on FXR reporter activity” value at FXR is on record as “no effect”. Also, in assay [2], the “induction of MDR1 protein (P-glycoprotein) expression” value was “much more effective than docetaxel”. Moreover, at human ERα, the “effect on ERα reporter activity” value is listed as “no effect”.
